Laboratory results: US11535597B2, “Photoreactive ligands and uses thereof” (The Scripps Research Institute, priority 2017, dated 2022)

System: proteins in HEK293T cells
Assay: MS-based mapping of FFF probe-modified peptides (isoTOP, sites of labeling)
Format: binding, human
Procedure, shortened: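 Live cells treated with fragment probes (200-250 μM) in serum-free DMEM, with or without competitor ligands. Proteomes clicked to light/heavy biotin-TEV-azide, streptavidin-enriched, trypsin- then TEV-digested; probe-modified peptides identified by LC-MS/MS with any residue allowed as modified site, isoTOP ratios quantified by CIMAGE.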

C#CCCC1(CCC(=O)NC23CC4CC(CC(C4)C2)C3)N=N1 [probe 14, N-((3s,5s,7s)-Adamantan-1-yl)-3-(3-(but-3-yn-1-yl)-3H-diazirin-3-yl)propanamide]
Labeled Peptide of HLA-A HLAC class I histocompatibility antigen, A-2 alpha (Accession P01892, residues of probe-labeled peptide, family Uncategorized): 46-59 | Labeled Peptide of HMOX2 Heme oxygenase 2 (Accession P30519 (r933 prints P03519), residues of probe-labeled peptide, family Enzymes): 69-87 | Labeled Peptide of GHITM Growth hormone-inducible transmembrane protein (Accession Q9H3K2, residues of probe-labeled peptide, family Uncategorized): 218-240 | Labeled Peptide of GOLPH3 Golgi phophoprotein 3 (Accession Q9H4A6, residues of probe-labeled peptide, family Adapter, Scaffolding, Modulator Proteins): 75-90 | Labeled Peptide of HAUS2 HAUS augmin-like complex subunit 2 (Accession Q9NVX0, residues of probe-labeled peptide, family Adapter, Scaffolding, Modulator Proteins): 173-189 | Labeled Peptide of FUBP1 Far upstream element-binding protein 1 (Accession Q96AE4, residues of probe-labeled peptide, family Transcription factors, Regulators): 593-620 | Labeled Peptide of HAUS1 HAUS augmin-like complex subunit 1 (Accession Q96CS2, residues of probe-labeled peptide, family Adapter, Scaffolding, Modulator Proteins): 94-108 | Labeled Peptide (GOLPH3 Golgi phosphoprotein 3, residues of probe-modified peptide): 75-90 | Labeled Peptide (HLA-A HLA class I histocompatibility antigen, A-2 alpha, residues of probe-modified peptide): 46-59 | Labeled Peptide (HMOX2 Heme oxygenase 2, residues of probe-modified peptide): 69-87 | Labeled Peptide (LIPA Lysosomal acid lipase (P38571), residues of the probe-labeled peptide): 255-270 | Labeled Peptide (MAN2B1 Lysosomal alpha-mannosidase (O00754), residues of the probe-labeled peptide): 291-305 | Labeled Peptide (MCFD2 (Q8NI22), residues of the probe-labeled peptide): 103-126 | Labeled Peptide (MSH2 (P43246), residues of the probe-labeled peptide): 848-871 | Labeled Peptide (MT-ND2 (P03891), residues of the probe-labeled peptide): 264-272 | Labeled Peptide (NDUFS1 (P28331), residues of the probe-labeled peptide): 312-325 | Labeled Peptide (NUP160 (Q12769), residues of the probe-labeled peptide): 638-661 | Labeled Peptide (NUP205 (Q92621), residues of the probe-labeled peptide): 1235-1252 | Labeled Peptide (NUP214 (P35658), residues of the probe-labeled peptide): 770-783 | Labeled Peptide (NUTF2 (P61970), residues of the probe-labeled peptide): 91-106 | Labeled Peptide (NXN Nucleoredoxin (Q6DKJ4), residues of the probe-labeled peptide): 384-403 | Labeled Peptide (P07384 CAPN1 Calpain-1 catalytic subunit): 175-193 | Labeled Peptide (residues) of YWHAQ 14-3-3 protein theta (P27348, peptide TAFDEAIAELDTLNEDSYK, PDB 5IQP): 194-212 | Labeled Peptide (P30519 HMOX2 Heme oxygenase 2): 69-87 | Labeled Peptide (P30520 ADSS Adenylosuccinate synthetase isozyme 2): 431-441 | Labeled Peptide (residues) of PPP1CC Serine/threonine-protein phosphatase PP1-gamma cat (P36873, peptide EIFLSQPILLELEAPLK, PDB 4UT2): 44-60 | Labeled Peptide (P48729 CSNK1A1 Casein kinase I isoform alpha): 84-106 | Labeled Peptide (residues) of RAB7A Ras-related protein Rab-7a (P51149, peptide DEFLIQASPR, PDB 1YHN): 104-113 | Labeled Peptide (P67870 CSNK2B Casein kinase II subunit beta): 112-134 | Labeled Peptide (PCNA (P12004), residues of the probe-labeled peptide): 118-138 | Labeled Peptide (Q8NI60 ADCK3 Chaperone activity of bc1 complex-like, mitochondr): 277-295 | Labeled Peptide (Q9H4A6 GOLPH3 Golgi phosphoprotein 3): 75-90 | Labeled Peptide (residues) of RUVBL2 RuyB-like 2 (Q9Y230, peptide ALESDMAPVLIMATNR, PDB 3UK6): 315-330 | Labeled Peptide (Q13867 BLMH Bleomycin hydrolase): 111-124 | Labeled Peptide (protein ADCK3 (Q8NI60), residues of probe-labeled peptide): 277-295 | Labeled Peptide (protein ADCK3 Chaperone activity of bc1 complex-like, mitochondr, residues of probe-labeled peptide): 277-295 | Labeled Peptide (protein ADSS (P30520), residues of probe-labeled peptide): 431-441 | Labeled Peptide (protein ADSS Adenylosuccinate synthetase isozyme 2, residues of probe-labeled peptide): 431-441 | Labeled Peptide (protein AGK (Q53H12), residues of probe-labeled peptide): 283-304 | Labeled Peptide (protein ALDH18A1 (P54886), residues of probe-labeled peptide): 650-662 | Labeled Peptide (protein ASNA1 (O43681), residues of probe-labeled peptide): 131-153 | Labeled Peptide (protein ATP2A2 (P16615), residues of probe-labeled peptide): 335-352 | Labeled Peptide (protein ATP2B1 (P20020), residues of probe-labeled peptide): 824-840 | Labeled Peptide (protein ATP2B4 (P23634), residues of probe-labeled peptide): 812-828 | Labeled Peptide (protein ATP5B (P06576), residues of probe-labeled peptide): 407-422 | Labeled Peptide (protein ATP6V1B2 (P21281), residues of probe-labeled peptide): 437-457 | Labeled Peptide (protein BLMH (Q13867), residues of probe-labeled peptide): 111-124 | Labeled Peptide (protein BLMH Bleomycin hydrolase, residues of probe-labeled peptide): 111-124 | Labeled Peptide (protein CALM3 Calmodulin (P62158), residues of probe-labeled peptide): 39-75 | Labeled Peptide (protein CALM3 Calmodulin, residues of probe-labeled peptide): 39-75 | Labeled Peptide (protein CAPN1 (P07384), residues of probe-labeled peptide): 175-193 | Labeled Peptide (protein CAPN1 Calpain-1 catalytic subunit, residues of probe-labeled peptide): 175-193 | Labeled Peptide (protein CCDCC51 (Q96ER9), residues of probe-labeled peptide): 86-96 | Labeled Peptide (protein CLPB Caseinolytic peptidase B protein homolog (Q9H078), residues of probe-labeled peptide): 630-650 | Labeled Peptide (protein COX15 Cytochrome coxidase assembly protein COX15 homolo (Q7KZN9), residues of probe-labeled peptide): 296-313 | Labeled Peptide (protein CSNK1A1 Casein kinase I isoform alpha (P48729), residues of probe-labeled peptide): 84-106 | Labeled Peptide (protein CSNK1A1 Casein kinase I isoform alpha, residues of probe-labeled peptide): 84-106 | Labeled Peptide (protein CSNK2B Casein kinase II subunit beta (P67870), residues of probe-labeled peptide): 112-134 | Labeled Peptide (protein CSNK2B Casein kinase II subunit beta, residues of probe-labeled peptide): 112-134 | Labeled Peptide (protein DCAF7 DDB1- and CUL4-associated factor 7 (P61962), residues of probe-labeled peptide): 82-96 | Labeled Peptide (protein FAH Fumarylacetoacetase (P16930), residues of probe-labeled peptide): 242-253 | Labeled Peptide (protein FAM114A2 Protein FAM114A2 (Q9NRY5), residues of probe-labeled peptide): 184-196 | Labeled Peptide (protein O94826 TOMM70A Mitochondrial import receptor subunit TOM70): 475-494 | Labeled Peptide (protein O96008 TOMM40 Mitochondrial import receptor subunit TOM40 homolog): 278-293 | Labeled Peptide (protein P05387 RPLP2 60S acidic ribosomal protein P2): 50-61 | Labeled Peptide (protein P31948 STIP1 Stress-induced-phosphoprotein 1): 416-429 | Labeled Peptide (protein P46977 STT3A Dolichyl-diphosphooligosaccharide--protein glycosy): 330-340 | Labeled Peptide (protein PABPC1 Polyadenylate-binding protein 1, residues of the probe-labeled peptide): 114-129 | Labeled Peptide (protein PCNA Proliferating cell nuclear antigen, residues of the probe-labeled peptide): 118-138 | Labeled Peptide (protein PCYOX1 Prenylcysteine oxidase 1 (Q9UHG3)): 37-54 | Labeled Peptide (protein PHB Prohibitin (P35232)): 241-253 | Labeled Peptide (protein PLS3 Plastin-3 (P13797)): 72-85 | Labeled Peptide (protein PPP1CB Serine/threonine-protein phosphate PP1-alpha cat (P62140)): 43-59 | Labeled Peptide (protein PPP1CC Serine/threonine-protein phosphatase PP1-gamma cat, residues of the probe-labeled peptide): 44-60 | Labeled Peptide (protein PPP1CC Serine/threonine-protein phosphate PP1-gamma cat (P36873)): 44-60 | Labeled Peptide (protein PRPF19 Pre-mRNA-processing factor 19 (Q9UMS4)): 186-196 | Labeled Peptide (protein PSMD3 26S proteasome non-ATPase regulatory subunit 3 (O43242)): 426-440 | Labeled Peptide (protein PTBP1 Polypyrimidine tract-binding protein 1 (P26599)): 219-238 | Labeled Peptide (protein Q8NBX0 SCCPDH Saccharopine dehydrogenase-like oxidoreductase): 145-167 | Labeled Peptide (protein Q8TBP6 SLC25A40 Solute carrier family 25 member 40): 136-152 | Labeled Peptide (protein Q8TCJ2 STT3B Dolichyl-diphosphooligosaccharide--protein glycosy): 692-703 | Labeled Peptide (protein Q9H2D1 SLC25A32 Mitochondrial folate transporter/carrier): 118-145 | Labeled Peptide (protein Q9H4I3 TRABD TraB domain-containing protein): 235-253 | Labeled Peptide (protein Q9H061 TMEM126A Transmembrane protein 126A): 85-105 | Labeled Peptide (protein Q9NS69 TOMM22 Mitochondrial import receptor subunit TOM22 homolog): 106-117 | Labeled Peptide (protein Q9UBX3 SLC25A10 Mitochondrial dicarboxylate carrier): 171-186 | Labeled Peptide (protein Q9Y230 RUVBL2 RuvB-like 2): 315-330 | Labeled Peptide (protein QIL1 Protein QIL1 (Q5XLP0)): 15-36 | Labeled Peptide (protein RAB7A Ras-related protein Rab-7a (P51149)): 104-113 | Labeled Peptide (protein RAB7A Ras-related protein Rab-7a, residues of the probe-labeled peptide): 104-113 | Labeled Peptide (protein RABEPK Rab9 effector protein with kelch motifs (Q7Z6M1)): 87-100 | Labeled Peptide (protein RARS Arginine--tRNA ligase, cytoplasmic (P54136)): 528-540 | Labeled Peptide (protein RARS Arginine--tRNA ligase, cytoplasmic, residues of the probe-labeled peptide): 528-540 | Labeled Peptide (protein RUVBL2 RuvB-like 2, residues of the probe-modified peptide): 315-330 | Labeled Peptide (protein TXNDC17 Thioredoxin domain-containing protein 17, residues of the probe-modified peptide): 4-17 | Labeled Peptide (protein VPS33A Vacuolar protein sorting-associated protein 33A, residues of the probe-modified peptide): 233-262 | Labeled Peptide (protein YWHAQ 14-3-3 protein theta, residues of the probe-modified peptide): 194-212 | Labeled Peptide (residues of probe-labeled peptide on VDAC3 Voltage-dependent anion-slective channel protein, Accession # Q9Y277): 164-174 | Labeled Peptide (residues of probe-labeled peptide on VMP1 Vacuole membrane protein 1, Accession # Q96GC9): 214-243 | Labeled Peptide (residues of probe-labeled peptide on VPS33A Vacuolar protein sorting-associated protein 33A, Accession # Q96AX1): 233-262 | Labeled Peptide (residues of probe-labeled peptide on VPS51 Vacuolar protein sorting-associated protein 51 hom, Accession # Q9UID3): 742-763 | Labeled Peptide (residues of probe-labeled peptide on YWHAQ 14-3-3 protein theta, Accession # P27348): 194-212
